Measured values from US20230011869A1 (Hoffmann-La Roche Inc., priority 2018, published 2023).
Where a name gives a salt, the structure may show the parent alone. Read-outs that look alike come from different tables or passages of the source.

Tested on: Acinetobacter baumannii ATCC17978
Experiment: Antimicrobial susceptibility testing: 90% growth inhibitory concentration (IC90) determination, Iso-Sensitest broth
Assay type: cell-based
Method in brief: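 A. baumannii ATCC17978 grown in Iso-Sensitest broth across 10 compound concentrations at 35±2 °C.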

[1] = Acinetobacter baumannii, ATCC17978, 16 h, read-out: ATCC17978 IC90, 90% growth inhibitory concentration, Acinetobacter baumannii ATCC17978, Iso-Sensitest broth, OD 600 nm over 16 h
[2] = 90% growth inhibitory concentration, Acinetobacter baumannii ATCC17978, Iso-Sensitest broth, OD 600 nm over 16 h, read-out: ATCC17978 IC90

IC90 [2]	Compound	IC90 [1]
–	Cc1cc(Nc2nccn3c(-c4ccc(OC(F)F)cc4)cnc23)ccc1C(=O)N1CCN(C(=O)C2(C)CNC2)CC1 [Example 267, [4-[[3-[4-(difluoromethoxy)phenyl]imi-dazo[1,2-a]pyrazin-8-yl]amino]-2-methylphenyl]-[4-(3-methylazetidine-3-carbonyl)piperazin-1-yl]methanone]	1300 nM
–	Cc1cc(Nc2nccn3c(-c4ccc(OC(F)F)cc4)cnc23)ccc1C(=O)N1CCN(C(=O)c2ccc(CN3CCNCC3)cc2)CC1 [Example 337, [4-[4-[[3-[4-(difluoromethoxy)phenyl]imi-dazo[1,2-a]pyrazin-8-yl]amino]-2-methylbenzoyl]piperazin-1-yl]-[4-(piperazin-1-ylmethyl)phenyl]methanone; hydrochloride]	470 nM
420 nM	CCOc1ccc(-c2cnc3c(Nc4ccc(C(=O)N5CCC(CN)CC5)c(C)c4)nccn23)c(F)c1Cl [Example 110, (4-(aminomethyl)piperidin-1-yl)(4-((3-(3-chloro-4-ethoxy-2-fluorophenyl)imidazo[1,2-a]pyrazin-8-yl)amino)-2-methylphenyl)methanone formate]	–
–	Cc1cc(Nc2nccn3c(-c4ccc(OCC#CCN)c(F)c4)cnc23)ccc1C(=O)N1CCC(CN)CC1 [Example 247, [4-[[3-[4-(4-aminobut-2-ynoxy)-3-fluoro-phenyl]imidazo[1,2-a]pyrazin-8-yl]amino]-2-methyl-phenyl]-[4-(aminomethyl)-1-piperidyl]methanone; formic acid]	870 nM
220 nM	COc1ccc(-c2cnc3c(Nc4ccc(C(=O)N5CCN(C(=O)N6CCO[C@H](CN)C6)CC5)c(C)c4)nccn23)c(Cl)c1F [Example 167, [4-[(2R)-2-(aminomethyl)morpholine-4-carbonyl]piperazin-1-yl]-[4-[[3-(2-chloro-3-fluoro-4-methoxy-phenyl)imidazo[1,2-a]pyrazin-8-yl]amino]-2-methyl-phenyl]methanone formate]	–
–	Cc1cc(Nc2nccn3c(-c4ccc(OC(F)F)cc4)cnc23)ccc1C(=O)N1CCC(C(N)=O)(N2CCN(C)CC2)CC1 [Example 375, 1-[4-[[3-[4-(difluoromethoxy)phenyl]imi-dazo[1,2-a]pyrazin-8-yl]amino]-2-methylbenzoyl]-4-(4-methylpiperazin-1-yl)piperidine-4-carboxamide]	2000 nM
290 nM	COc1cc(F)c(-c2cnc3c(Nc4ccc(C(=O)N5CCC(CN)CC5)c(C)c4)nccn23)cc1Cl [Example 107, (4-(aminomethyl)piperidin-1-yl)(4-((3-(5-chloro-2-fluoro-4-methoxyphenyl)imidazo[1,2-a]pyrazin-8-yl)amino)-2-methylphenyl)methanone]	–
–	Cc1cc(Nc2nccn3c(-c4ccc(OC(F)F)cc4)cnc23)ccc1C(=O)N1CCC(CC(=O)O)CC1 [Example 382, 2-[1-[4-[[3-[4-(difluoromethoxy)phenyl]imi-dazo[1,2-a]pyrazin-8-yl]amino]-2-methylbenzoyl]piperidin-4-yl]acetic acid]	3600 nM
–	Cc1cc(Nc2nccn3c(-c4ccc(OC(F)F)cc4)cnc23)ccc1C(=O)N1CCC(Cn2cnnc2)CC1 [Example 354, [4-[[3-[4-(difluoromethoxy)phenyl]imi-dazo[1,2-a]pyrazin-8-yl]amino]-2-methylphenyl]-[4-(1,2,4-triazol-4-ylmethyl)piperidin-1-yl]methanone]	240 nM
3800 nM	COc1ccc(-c2cnc3c(Nc4ccc(C(=O)N5CCC(C(=O)NC(CN(C)C)C(=O)O)CC5)c(C)c4)nccn23)cc1F (centres unmarked) [Example 278, 3-(dimethylamino)-2-[[1-[4-[[3-(3-fluoro-4-methoxyphenyl)imidazo[1,2-a]pyrazin-8-yl]amino]-2-methylbenzoyl]piperidine-4-carbonyl]amino]propanoic acid]	–
300 nM	Cc1cc(Nc2nccn3c(-c4ccc(OC(F)F)cc4)cnc23)ccc1C(=O)N1CCN(C(=O)N2CCOC(CN(C)C)C2)CC1 (centres unmarked) [Example 132, [4-[[3-[4-(difluoromethoxy)phenyl]imidazo[1,2-a]pyrazin-8-yl]amino]-2-methyl-phenyl]-[4-[2-[(dimethylamino)methyl]morpholine-4-carbonyl]piperazin-1-yl]methanone]	–
–	CC[C@@H](N)C(=O)N1CCN(C(=O)c2ccc(Nc3nccn4c(-c5ccc(OC(F)F)cc5)cnc34)cc2C)CC1 [Example 261, (2R)-2-amino-1-[4-[4-[[3-[4-(difluoromethoxy)phenyl]imi-dazo[1,2-a]pyrazin-8-yl]amino]-2-methylbenzoyl]piperazin-1-yl]butan-1-one; hydrochloride]	1000 nM
–	Cc1cc(Nc2nccn3c(-c4ccc(OC(F)F)cc4)cnc23)ccc1C(=O)N1CCN(C(=O)C[C@H](C)N)CC1 [Example 327, (3S)-3-amino-1-[4-[4-[[3-[4-(difluoromethoxy)phenyl]imi-dazo[1,2-a]pyrazin-8-yl]amino]-2-methylbenzoyl]piperazin-1-yl]butan-1-one; hydrochloride]	380 nM
1500 nM	COc1ccc(-c2cnc3c(Nc4ccc(C(=O)N5CCC(C(=O)N(C)C[C@H](O)[C@@H](O)[C@H](O)[C@H](O)CO)CC5)c(C)c4)nccn23)cc1F [Example 432, 1-[4-[[3-(3-fluoro-4-methoxyphenyl)imidazo[1,2-a]pyrazin-8-yl]amino]-2-methylbenzoyl]-N-methyl-N-[(2S,3R,4R,5R)-2,3,4,5,6-pentahydroxyhexyl]piperidine-4-carboxamide]	–
–	CC[C@]1(O)CN[C@H](C(=O)N2CCN(C(=O)c3ccc(Nc4nccn5c(-c6ccc(OC)c(F)c6F)cnc45)cc3C)CC2)C1 [Example 465, [4-[[3-(2,3-difluoro-4-methoxyphenyl)imidazo[1,2-a]pyrazin-8-yl]amino]-2-methylphenyl]-[4-[(2S,4R)-4-ethyl-4-hydroxypyrrolidine-2-carbonyl]piperazin-1-yl]methanone; formic acid]	170 nM
–	Cc1cc(Nc2nccn3c(-c4ccc(OC(F)F)cc4)cnc23)ccc1C(=O)N1CCN(C(=O)N2CCO[C@H](CN)C2)CC1 [Example 496, [4-[(2R)-2-(aminomethyl)morpholine-4-carbonyl]piperazin-1-yl]-[4-[[3-[4-(difluoromethoxy)phenyl]imi-dazo[1,2-a]pyrazin-8-yl]amino]-2-methylphenyl]methanone; for-mic acid]	330 nM
100 nM	Cc1cc(Nc2nccn3c(-c4ccc(OCC#N)c(F)c4Cl)cnc23)ccc1C(=O)N1CCN(C(=O)N[C@H](C)CN)CC1 [Example 160, N-[(1R)-2-amino-1-methyl-ethyl]-4-[4-[[3-[2-chloro-4-(cyanomethoxy)-3-fluoro-phenyl]imidazo[1,2-a]pyrazin-8-yl]amino]-2-methyl-benzoyl]piperazine-1-carboxamide formate]	–
–	COc1ccc(-c2cnc3c(Nc4ccc(C(=O)N5CCN(C(=O)[C@@H]6C[C@@H](OC(=O)CN)CN6)CC5)c(C)c4)nccn23)c(F)c1F [Example 562, [(3R,5S)-5-[4-[4-[[3-(2,3-difluoro-4-methoxy-phenyl)imidazo[1,2-a]pyrazin-8-yl]amino]-2-methyl-benzoyl]piperazine-1-carbonyl]pyrrolidin-3-yl]2-aminoacetate formate]	112 nM
110 nM	Cc1cc(Nc2nccn3c(-c4ccc(OCC#N)c(F)c4F)cnc23)ccc1C(=O)N1CCC(CCN)CC1 [Example 304, 2-[4-[8-[4-[4-(2-aminoethyl)piperidine-1-carbonyl]-3-methylanilino]imidazo[1,2-a]pyrazin-3-yl]-2,3-difluorophenoxy]acetonitrile]	–
–	COc1ccc(-c2cnc3c(Nc4ccc(C(=O)N5CCC(CN)CC5)c(C)c4)nccn23)cc1F [Example 34, (4-(aminomethyl)piperidin-1-yl)(4-((3-(3-fluoro-4-methoxyphenyl)imidazo[1,2-a]pyrazin-8-yl)amino)-2-methylphenyl)methanone hydrochloride]	190 nM
100 nM	C#CCOc1ccc(-c2cnc3c(Nc4ccc(C(=O)N5CCC(C(=O)NCCCNC)CC5)c(C)c4)nccn23)c(F)c1F [Example 305, 1-[4-[[3-(2,3-difluoro-4-prop-2-ynoxyphenyl)imidazo[1,2-a]pyrazin-8-yl]amino]-2-methylbenzoyl]-N-[3-(methylamino)propyl]piperi-dine-4-carboxamide]	–
190 nM	COc1ccc(-c2cnc3c(Nc4ccc(C(=O)N5CCN(C(=O)C6CCNCC6)CC5)c(C)c4)nccn23)c(F)c1F [Example 485, [4-[[3-(2,3-difluoro-4-methoxyphenyl)imidazo[1,2-a]pyrazin-8-yl]amino]-2-methylphenyl]-[4-(piperidine-4-carbonyl)piperazin-1-yl]methanone; hydrochloride]	–
–	COc1ccc(-c2cnc3c(Nc4ccc(C(=O)N5CCN(C(=O)[C@@H]6CCNC6)CC5)c(C)c4)nccn23)c(Cl)c1F [Example 474, [4-[[3-(2-chloro-3-fluoro-4-methoxyphenyl)imidazo[1,2-a]pyrazin-8-yl]amino]-2-methylphenyl]-[4-[(3R)-pyrrolidine-3-carbonyl]piperazin-1-yl]methanone; formic acid]	94 nM
–	Cc1cc(Nc2nccn3c(-c4ccc(OC(F)F)cc4)cnc23)ccc1C(=O)N1CCN(CC(=O)N(C)C)CC1 [Example 372, 2-[4-[4-[[3-[4-(difluoromethoxy)phenyl]imi-dazo[1,2-a]pyrazin-8-yl]amino]-2-methylbenzoyl]piperazin-1-yl]-N,N-dimethylacetamide]	1200 nM
310 nM	COc1ccc(-c2cnc3c(Nc4ccc(C(=O)N5CCN(S(N)(=O)=O)CC5)c(C)c4)nccn23)cc1F [Example 389, 4-[4-[[3-(3-fluoro-4-methoxyphenyl)imidazo[1,2-a]pyrazin-8-yl]amino]-2-methylbenzoyl]piperazine-1-sulfonamide]	–

Compound	IC90 [2]	IC90 [1]
Cc1cc(Nc2nccn3c(-c4ccc(OC(F)F)cc4)cnc23)ccc1C(=O)N1CCN(C(=O)CC[C@@H](N)C(=O)O)CC1 [Example 271, (2R)-2-amino-5-[4-[4-[[3-[4-(difluoromethoxy)phenyl]imi-dazo[1,2-a]pyrazin-8-yl]amino]-2-methylbenzoyl]piperazin-1-yl]-5-oxopentanoic acid; formic acid]	2100 nM	–
